The record followed here is ChEMBL document CHEMBL5465560, “Selectivity Literature for EUbOPEN Chemogenomic Library” (2024).

Assay [1] addresses CDK6/cyclin D1 (Homo sapiens) (UniProt P24385+Q00534). Kind of assay: Selectivity interaction (NanoBRET assay in HEK293T cells) EUB0001631a CDK6. Format: cell-based. The following applies: HEK-293T, at 10 µM.
Assay [2] has as its target T1, Ephrin type-A receptor 1 (Homo sapiens) (UniProt P21709).
T1 sequence (whole entry): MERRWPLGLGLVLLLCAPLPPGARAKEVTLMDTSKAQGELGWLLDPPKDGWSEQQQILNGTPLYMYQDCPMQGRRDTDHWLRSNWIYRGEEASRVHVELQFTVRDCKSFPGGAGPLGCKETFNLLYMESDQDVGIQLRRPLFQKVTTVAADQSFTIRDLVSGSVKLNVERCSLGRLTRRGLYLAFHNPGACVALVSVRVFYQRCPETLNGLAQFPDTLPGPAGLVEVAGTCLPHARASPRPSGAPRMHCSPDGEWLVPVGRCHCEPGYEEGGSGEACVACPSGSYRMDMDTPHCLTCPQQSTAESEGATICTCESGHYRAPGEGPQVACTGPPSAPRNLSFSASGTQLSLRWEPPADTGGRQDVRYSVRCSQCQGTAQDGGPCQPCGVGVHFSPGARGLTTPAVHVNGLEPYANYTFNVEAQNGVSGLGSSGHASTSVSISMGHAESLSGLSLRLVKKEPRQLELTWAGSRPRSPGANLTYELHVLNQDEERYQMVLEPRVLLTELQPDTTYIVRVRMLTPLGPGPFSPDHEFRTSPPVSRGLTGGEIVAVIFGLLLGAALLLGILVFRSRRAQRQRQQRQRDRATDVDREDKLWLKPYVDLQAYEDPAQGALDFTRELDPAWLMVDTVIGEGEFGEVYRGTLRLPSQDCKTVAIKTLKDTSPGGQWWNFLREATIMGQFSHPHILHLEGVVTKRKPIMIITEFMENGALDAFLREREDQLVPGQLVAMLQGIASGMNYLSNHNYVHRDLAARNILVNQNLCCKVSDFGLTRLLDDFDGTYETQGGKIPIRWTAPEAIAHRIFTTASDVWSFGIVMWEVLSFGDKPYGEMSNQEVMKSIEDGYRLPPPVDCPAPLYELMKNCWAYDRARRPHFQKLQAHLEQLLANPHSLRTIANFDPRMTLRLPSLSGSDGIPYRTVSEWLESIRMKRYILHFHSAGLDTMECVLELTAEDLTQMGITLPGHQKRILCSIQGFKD
Kind of assay: Selectivity interaction (KinaseProfilerTM (Merck Millipore) ) EUB0001631a EPHA1. The following applies: at 10 µM.

Assay [3] has as its target Cyclin-dependent kinase 2/cyclin E (Homo sapiens) (UniProt P24864+P24941+O96020). As to the kind of experiment: Selectivity interaction (KinaseProfilerTM (Merck Millipore) ) EUB0001631a CDK2. Format: protein-complex assay. The following applies: at 10 µM.
Assay [4] has as its target Cyclin-dependent kinase 7 (Homo sapiens, UniProt P50613). As to the kind of experiment: Selectivity interaction (NanoBRET assay in HEK293T cells) EUB0001631a CDK7. Type of assay: cell-based. The conditions noted are these: HEK-293T, at 10 µM. (In general: Bioluminescence resonance energy transfer reports proximity on the nanometre scale.)
The target of assay [5] is CDK12/Cyclin K (Homo sapiens) (UniProt O75909+Q9NYV4). As to the kind of experiment: Selectivity interaction (NanoBRET assay in HEK293T cells) EUB0001631a CDK12. Type of assay: cell-based. The conditions noted are these: HEK-293T, at 10 µM.
Assay [6] has as its target Glycogen synthase kinase-3 beta (Homo sapiens, UniProt P49841). Kind of assay: Selectivity interaction (KinaseProfilerTM (Merck Millipore) ) EUB0001631a GSK3B. The following applies: at 10 µM.
Assay [7] concerns the target Cyclin-Y/Cyclin-dependent kinase 16 (Homo sapiens) (UniProt Q00536+Q8ND76). As to the kind of experiment: Selectivity interaction (NanoBRET assay in HEK293T cells) EUB0001631a CDK16. Format: cell-based. The following applies: HEK-293T, at 10 µM.
Assay [8] concerns the target T2, Glycogen synthase kinase-3 alpha (Homo sapiens, UniProt P49840). Kind of assay: Selectivity interaction (KinaseProfilerTM (Merck Millipore) ) EUB0001631a GSK3A. The following applies: at 10 µM.
Assay [9] addresses CDK1/Cyclin E (Homo sapiens) (UniProt P06493+P24864). As to the kind of experiment: Selectivity interaction (NanoBRET assay in HEK293T cells) EUB0001631a CDK1. The conditions noted are these: HEK-293T, at 10 µM. Format: cell-based.
Assay [10] has as its target CDK17/Cyclin-Y (Homo sapiens) (UniProt Q00537+Q8ND76). As to the kind of experiment: Selectivity interaction (NanoBRET assay in HEK293T cells) EUB0001631a CDK17. Type of assay: cell-based. The following applies: HEK-293T, at 10 µM.
The target in assay [11] is Vascular endothelial growth factor receptor 3 (Homo sapiens, UniProt P35916). Kind of assay: Selectivity interaction (KinaseProfilerTM (Merck Millipore) ) EUB0001631a FLT4. The following applies: at 10 µM.
In assay [12] the target is CDK3/Cyclin E (Homo sapiens) (UniProt P24864+Q00526). As to the kind of experiment: Selectivity interaction (NanoBRET assay in HEK293T cells) EUB0001631a CDK3. Type of assay: cell-based. The conditions noted are these: HEK-293T, at 10 µM.
In assay [13] the target is CDK18/Cyclin Y (Homo sapiens) (UniProt Q07002+Q8ND76). As to the kind of experiment: Selectivity interaction (NanoBRET assay in HEK293T cells) EUB0001631a CDK18. Format: cell-based. The following applies: HEK-293T, at 10 µM.
The target of assay [14] is Cyclin-dependent kinase 2/cyclin E1 (Homo sapiens) (UniProt P24864+P24941). Kind of assay: Selectivity interaction (NanoBRET assay in HEK293T cells) EUB0001631a CDK2. Type of assay: cell-based. The following applies: HEK-293T, at 10 µM.
The target of assay [15] is CDK15/Cyclin Y (Homo sapiens) (UniProt Q96Q40+Q8ND76). As to the kind of experiment: Selectivity interaction (NanoBRET assay in HEK293T cells) EUB0001631a CDK15. Format: cell-based. The conditions noted are these: HEK-293T, at 10 µM.
In assay [16] the target is CDK11A/Cyclin L2 (Homo sapiens) (UniProt Q9UQ88+Q96S94). Kind of assay: Selectivity interaction (NanoBRET assay in HEK293T cells) EUB0001631a CDK11A. Format: cell-based. The conditions noted are these: HEK-293T, at 10 µM.
Assay [17] addresses Cyclin-dependent kinase 4/cyclin D1 (Homo sapiens) (UniProt P11802+P24385). As to the kind of experiment: Selectivity interaction (NanoBRET assay in HEK293T cells) EUB0001631a CDK4. Type of assay: cell-based. The conditions noted are these: HEK-293T, at 10 µM.
For assay [18], the target named is Tyrosine-protein kinase Fyn (Homo sapiens) (UniProt P06241). Kind of assay: Selectivity interaction (KinaseProfilerTM (Merck Millipore) ) EUB0001631a FYN. The conditions noted are these: at 10 µM.
Assay [19] deals with Mast/stem cell growth factor receptor Kit (Homo sapiens, UniProt P10721). As to the kind of experiment: Selectivity interaction (KinaseProfilerTM (Merck Millipore) ) EUB0001631a KIT. The conditions noted are these: at 10 µM.
For assay [20], the target named is T3, Cyclin-dependent kinase 5/CDK5 activator 1 (Homo sapiens) (UniProt Q00535+Q15078). Kind of assay: Selectivity interaction (NanoBRET assay in HEK293T cells) EUB0001631a CDK5. Type of assay: cell-based. The conditions noted are these: HEK-293T, at 10 µM.
The target of assay [21] is CDK8/Cyclin C (Homo sapiens) (UniProt P49336+P24863). Kind of assay: Selectivity interaction (NanoBRET assay in HEK293T cells) EUB0001631a CDK8. Type of assay: cell-based. The following applies: HEK-293T, at 10 µM.
The target of assay [22] is Cyclin-dependent kinase 14/Cyclin-Y (Homo sapiens) (UniProt O94921+Q8ND76). As to the kind of experiment: Selectivity interaction (NanoBRET assay in HEK293T cells) EUB0001631a CDK14. The following applies: HEK-293T, at 10 µM. Format: cell-based.
Assay [23] concerns the target Cyclin-C/Cyclin-dependent kinase 19 (Homo sapiens) (UniProt Q9BWU1+P24863). Kind of assay: Selectivity interaction (NanoBRET assay in HEK293T cells) EUB0001631a CDK19. Format: cell-based. The following applies: HEK-293T, at 10 µM.
Assay [24] has as its target CDK9/Cyclin K (Homo sapiens) (UniProt P50750+O75909). Kind of assay: Selectivity interaction (NanoBRET assay in HEK293T cells) EUB0001631a CDK9. The conditions noted are these: HEK-293T, at 10 µM. Type of assay: cell-based.
Assay [25] addresses T3, Cyclin-dependent kinase 5/CDK5 activator 1 (Homo sapiens). Kind of assay: Selectivity interaction (KinaseProfilerTM (Merck Millipore) ) EUB0001631a CDK5. Format: protein-complex assay. The following applies: at 10 µM.
Assay [26] has as its target High affinity nerve growth factor receptor (Homo sapiens, UniProt P04629). Kind of assay: Selectivity interaction (KinaseProfilerTM (Merck Millipore) ) EUB0001631a NTRK1. The conditions noted are these: at 10 µM.
Assay [27] addresses CDK1/Cyclin E (Homo sapiens) (UniProt P06493+P24864+O96020). As to the kind of experiment: Selectivity interaction (KinaseProfilerTM (Merck Millipore) ) EUB0001631a CDK1. Type of assay: protein-complex assay. The conditions noted are these: at 10 µM.
For assay [28], the target named is CDK10/Cyclin L2 (Homo sapiens) (UniProt Q15131+Q96S94). Kind of assay: Selectivity interaction (NanoBRET assay in HEK293T cells) EUB0001631a CDK10. The following applies: HEK-293T, at 10 µM. Format: cell-based.
For assay [29], the target named is Cyclin-dependent kinase 13/Cyclin-K (Homo sapiens) (UniProt Q14004+O75909). Kind of assay: Selectivity interaction (NanoBRET assay in HEK293T cells) EUB0001631a CDK13. Format: cell-based. The conditions noted are these: HEK-293T, at 10 µM.
Assay [30] addresses CDK11B/Cyclin L2 (Homo sapiens) (UniProt P21127+Q96S94). As to the kind of experiment: Selectivity interaction (NanoBRET assay in HEK293T cells) EUB0001631a CDK11B. Type of assay: cell-based. The conditions noted are these: HEK-293T, at 10 µM.
For assay [31], the target named is CDK20/Cyclin H (Homo sapiens) (UniProt P51946+Q8IZL9). Kind of assay: Selectivity interaction (NanoBRET assay in HEK293T cells) EUB0001631a CDK20. Type of assay: cell-based. The conditions noted are these: HEK-293T, at 10 µM.
Assay [32] deals with CDK3/cyclin E (Homo sapiens) (UniProt P24864+O96020+Q00526). Kind of assay: Selectivity interaction (KinaseProfilerTM (Merck Millipore) ) EUB0001631a CDK3. The conditions noted are these: at 10 µM. Type of assay: protein-complex assay.
The target of assay [33] is T2, Glycogen synthase kinase-3 alpha. As to the kind of experiment: Selectivity interaction (Eurofins kinase panel) EUB0000008b GSK3A. The following applies: at 1 µM.
For assay [34], the target named is T4, Homeodomain-interacting protein kinase 2 (Homo sapiens, UniProt Q9H2X6). Kind of assay: Selectivity interaction (Eurofins kinase panel) EUB0000008b HIPK2. The conditions noted are these: at 1 µM.
Target sequence in this assay (Q9H2X6 whole entry, looked up): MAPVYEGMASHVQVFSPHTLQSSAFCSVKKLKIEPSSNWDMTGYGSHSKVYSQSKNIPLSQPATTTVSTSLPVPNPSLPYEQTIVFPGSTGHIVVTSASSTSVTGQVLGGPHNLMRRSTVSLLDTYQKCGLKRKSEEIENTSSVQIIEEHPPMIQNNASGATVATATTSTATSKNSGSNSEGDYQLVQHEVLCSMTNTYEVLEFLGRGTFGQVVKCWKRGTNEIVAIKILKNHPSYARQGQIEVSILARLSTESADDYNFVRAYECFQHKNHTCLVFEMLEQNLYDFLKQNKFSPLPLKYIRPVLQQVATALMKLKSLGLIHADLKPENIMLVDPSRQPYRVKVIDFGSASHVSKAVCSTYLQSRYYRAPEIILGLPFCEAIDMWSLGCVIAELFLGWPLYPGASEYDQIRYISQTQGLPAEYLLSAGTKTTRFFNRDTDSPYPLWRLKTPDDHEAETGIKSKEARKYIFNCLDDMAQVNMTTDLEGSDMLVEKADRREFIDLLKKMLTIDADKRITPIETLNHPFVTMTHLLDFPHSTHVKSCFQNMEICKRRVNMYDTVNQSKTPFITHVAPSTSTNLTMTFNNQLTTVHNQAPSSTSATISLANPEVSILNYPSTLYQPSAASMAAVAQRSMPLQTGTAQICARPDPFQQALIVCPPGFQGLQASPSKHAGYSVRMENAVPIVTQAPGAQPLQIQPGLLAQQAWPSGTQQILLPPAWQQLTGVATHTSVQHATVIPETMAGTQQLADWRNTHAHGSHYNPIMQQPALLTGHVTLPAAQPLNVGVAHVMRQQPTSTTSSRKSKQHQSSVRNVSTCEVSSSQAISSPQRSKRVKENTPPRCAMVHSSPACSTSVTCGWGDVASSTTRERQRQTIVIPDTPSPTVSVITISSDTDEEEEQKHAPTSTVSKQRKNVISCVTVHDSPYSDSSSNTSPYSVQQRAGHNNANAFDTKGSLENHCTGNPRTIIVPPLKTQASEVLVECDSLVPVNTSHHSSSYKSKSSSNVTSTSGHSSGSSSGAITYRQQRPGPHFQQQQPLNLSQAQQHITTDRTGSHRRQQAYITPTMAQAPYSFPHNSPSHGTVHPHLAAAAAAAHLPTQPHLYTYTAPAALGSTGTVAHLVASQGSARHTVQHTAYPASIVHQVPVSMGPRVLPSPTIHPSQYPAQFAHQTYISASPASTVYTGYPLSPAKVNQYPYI
In assay [35] the target is T4, Homeodomain-interacting protein kinase 2. As to the kind of experiment: Selectivity interaction (Eurofins binding assay) EUB0000008b HIPK2.
Target sequence in this assay (Q9H2X6 whole entry): as the sequence (Q9H2X6 whole entry, looked up) above
Assay [36] addresses Homeodomain-interacting protein kinase 4 (Homo sapiens, UniProt Q8NE63). Kind of assay: Selectivity interaction (NanoBRET assay (using HEK293T cells)) EUB0000008b HIPK4. Type of assay: cell-based, HEK-293T.
In assay [37] the target is Homeodomain-interacting protein kinase 3 (Homo sapiens, UniProt Q9H422). Kind of assay: Selectivity interaction (Eurofins kinase panel) EUB0000008b HIPK3. The following applies: at 1 µM.
In assay [38] the target is T4, Homeodomain-interacting protein kinase 2. As to the kind of experiment: Selectivity interaction (NanoBRET assay (using HEK293T cells)) EUB0000008b HIPK2. Type of assay: cell-based, HEK-293T.
Target sequence in this assay (Q9H2X6 whole entry): as the sequence (Q9H2X6 whole entry, looked up) above

SMILES strings stand for the structures.

In general, IC50 refers to the point on the concentration scale where inhibition reaches its midpoint.

T2 sequence (P49840 2-483 limits assumed): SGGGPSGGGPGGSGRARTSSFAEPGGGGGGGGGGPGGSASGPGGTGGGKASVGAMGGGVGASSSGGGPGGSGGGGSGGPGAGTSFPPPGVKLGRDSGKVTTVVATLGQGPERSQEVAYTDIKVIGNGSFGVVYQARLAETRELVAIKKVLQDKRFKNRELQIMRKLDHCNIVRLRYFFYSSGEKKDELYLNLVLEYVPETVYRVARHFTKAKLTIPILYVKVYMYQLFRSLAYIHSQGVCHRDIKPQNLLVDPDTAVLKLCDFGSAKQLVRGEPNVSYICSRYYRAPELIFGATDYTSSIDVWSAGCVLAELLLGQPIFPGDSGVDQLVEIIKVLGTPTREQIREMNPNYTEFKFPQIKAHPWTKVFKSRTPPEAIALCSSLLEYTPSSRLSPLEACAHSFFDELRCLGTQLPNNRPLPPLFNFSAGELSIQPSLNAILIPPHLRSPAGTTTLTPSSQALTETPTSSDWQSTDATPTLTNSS
T3 sequence (Q00535 whole entry): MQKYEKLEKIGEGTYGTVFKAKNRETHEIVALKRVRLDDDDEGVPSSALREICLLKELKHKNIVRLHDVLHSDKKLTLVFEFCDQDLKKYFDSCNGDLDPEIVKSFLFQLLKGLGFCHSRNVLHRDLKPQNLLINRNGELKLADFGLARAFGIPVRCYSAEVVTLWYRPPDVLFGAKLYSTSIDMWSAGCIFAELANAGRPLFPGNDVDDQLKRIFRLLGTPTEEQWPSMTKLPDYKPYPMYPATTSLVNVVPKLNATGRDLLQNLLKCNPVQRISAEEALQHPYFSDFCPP
T3 sequence (Q15078 99-307 partner limits assumed): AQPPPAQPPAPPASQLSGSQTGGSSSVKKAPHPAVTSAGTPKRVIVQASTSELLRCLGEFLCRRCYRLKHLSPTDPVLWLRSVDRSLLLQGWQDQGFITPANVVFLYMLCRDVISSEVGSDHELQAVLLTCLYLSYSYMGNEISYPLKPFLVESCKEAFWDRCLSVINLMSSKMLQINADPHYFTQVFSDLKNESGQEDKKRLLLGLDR
Glycogen synthase kinase-3 beta, sequence (P49841 whole entry, looked up): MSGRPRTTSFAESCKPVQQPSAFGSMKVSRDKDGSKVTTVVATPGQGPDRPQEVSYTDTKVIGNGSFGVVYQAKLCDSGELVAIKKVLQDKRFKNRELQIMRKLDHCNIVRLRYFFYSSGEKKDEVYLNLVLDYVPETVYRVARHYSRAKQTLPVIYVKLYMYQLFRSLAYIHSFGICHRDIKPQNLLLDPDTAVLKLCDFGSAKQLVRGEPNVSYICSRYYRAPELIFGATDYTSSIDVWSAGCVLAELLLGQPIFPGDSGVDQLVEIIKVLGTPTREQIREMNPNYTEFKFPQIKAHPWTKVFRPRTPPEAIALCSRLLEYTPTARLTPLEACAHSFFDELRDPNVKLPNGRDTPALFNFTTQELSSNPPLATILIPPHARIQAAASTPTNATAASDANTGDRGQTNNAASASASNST
CDK1/Cyclin E (Homo sapiens) (UniProt P06493+P24864+O96020), sequence (O96020 whole entry, looked up): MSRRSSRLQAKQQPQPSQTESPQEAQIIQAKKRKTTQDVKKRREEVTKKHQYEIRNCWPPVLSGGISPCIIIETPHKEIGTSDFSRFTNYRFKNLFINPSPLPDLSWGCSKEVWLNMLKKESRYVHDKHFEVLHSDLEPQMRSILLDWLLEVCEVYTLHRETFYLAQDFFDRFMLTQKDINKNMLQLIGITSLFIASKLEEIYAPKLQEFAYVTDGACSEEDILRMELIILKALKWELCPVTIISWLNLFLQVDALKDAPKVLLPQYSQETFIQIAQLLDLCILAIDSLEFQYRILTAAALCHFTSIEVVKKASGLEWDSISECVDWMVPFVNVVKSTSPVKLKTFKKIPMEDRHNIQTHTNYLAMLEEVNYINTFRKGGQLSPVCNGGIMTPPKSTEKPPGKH
CDK1/Cyclin E (Homo sapiens) (UniProt P06493+P24864+O96020), sequence (P06493 whole entry, looked up): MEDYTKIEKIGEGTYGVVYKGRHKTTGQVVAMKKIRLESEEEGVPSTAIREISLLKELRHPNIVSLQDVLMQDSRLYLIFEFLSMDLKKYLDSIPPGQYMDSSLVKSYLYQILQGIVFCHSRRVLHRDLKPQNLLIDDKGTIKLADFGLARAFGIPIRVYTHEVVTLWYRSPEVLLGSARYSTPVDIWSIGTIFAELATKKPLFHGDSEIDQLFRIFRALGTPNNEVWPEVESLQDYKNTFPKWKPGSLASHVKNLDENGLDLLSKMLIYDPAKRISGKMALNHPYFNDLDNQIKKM
CDK1/Cyclin E (Homo sapiens) (UniProt P06493+P24864+O96020), sequence (P24864 whole entry, looked up): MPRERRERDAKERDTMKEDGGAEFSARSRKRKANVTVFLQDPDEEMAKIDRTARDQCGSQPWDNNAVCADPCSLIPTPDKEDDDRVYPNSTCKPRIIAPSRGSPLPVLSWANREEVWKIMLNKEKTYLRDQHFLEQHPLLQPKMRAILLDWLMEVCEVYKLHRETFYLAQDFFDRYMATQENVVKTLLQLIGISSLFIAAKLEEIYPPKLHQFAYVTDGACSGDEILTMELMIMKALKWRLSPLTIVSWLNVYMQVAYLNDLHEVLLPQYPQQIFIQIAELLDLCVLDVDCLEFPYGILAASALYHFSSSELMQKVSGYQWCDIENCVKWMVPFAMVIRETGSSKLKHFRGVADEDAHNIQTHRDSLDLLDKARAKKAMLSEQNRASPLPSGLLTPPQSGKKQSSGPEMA
CDK3/cyclin E (Homo sapiens), sequence (O96020 whole entry, looked up): as the sequence (O96020 whole entry, looked up) above
CDK3/cyclin E (Homo sapiens), sequence (P24864 whole entry, looked up): as the sequence (P24864 whole entry, looked up) above
CDK3/cyclin E (Homo sapiens), sequence (Q00526 whole entry, looked up): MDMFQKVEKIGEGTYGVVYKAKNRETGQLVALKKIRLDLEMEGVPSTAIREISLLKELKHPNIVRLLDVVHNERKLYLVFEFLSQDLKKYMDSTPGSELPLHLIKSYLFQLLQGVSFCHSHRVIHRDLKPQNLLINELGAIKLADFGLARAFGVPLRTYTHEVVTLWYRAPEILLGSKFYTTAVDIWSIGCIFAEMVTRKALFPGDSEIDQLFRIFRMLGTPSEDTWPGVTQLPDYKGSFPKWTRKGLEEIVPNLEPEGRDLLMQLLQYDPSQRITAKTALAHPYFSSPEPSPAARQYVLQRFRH
Homeodomain-interacting protein kinase 4, sequence (Q8NE63 whole entry): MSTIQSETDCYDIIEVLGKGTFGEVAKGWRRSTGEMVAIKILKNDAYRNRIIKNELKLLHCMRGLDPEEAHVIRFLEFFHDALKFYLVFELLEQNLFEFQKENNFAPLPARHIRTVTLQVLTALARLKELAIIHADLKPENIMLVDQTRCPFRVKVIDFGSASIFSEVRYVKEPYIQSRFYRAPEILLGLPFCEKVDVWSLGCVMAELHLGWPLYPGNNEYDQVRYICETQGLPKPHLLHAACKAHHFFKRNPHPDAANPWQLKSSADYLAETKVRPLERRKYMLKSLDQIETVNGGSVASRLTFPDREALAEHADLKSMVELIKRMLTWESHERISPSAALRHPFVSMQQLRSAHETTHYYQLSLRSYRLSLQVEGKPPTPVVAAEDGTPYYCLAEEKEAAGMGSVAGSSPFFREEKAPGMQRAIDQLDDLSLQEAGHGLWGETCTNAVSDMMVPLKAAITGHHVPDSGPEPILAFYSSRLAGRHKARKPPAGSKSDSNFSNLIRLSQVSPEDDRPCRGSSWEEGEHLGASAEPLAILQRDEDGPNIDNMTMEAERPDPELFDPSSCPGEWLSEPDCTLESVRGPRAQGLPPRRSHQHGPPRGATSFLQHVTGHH

Turning to `COc1cc(F)ccc1-c1ncnc(Nc2cccc(C[S@](C)(=N)=O)c2)n1`, the % of inhibition in assay [1] came out at 64.1%; in [4] it was 16.8%; in assay [5], 8.2%; in assay [7], 38.6%; in assay [9] it was 16.6%; in assay [10] it was 31%. The % of inhibition in assay [12] was found to be 48.4%; in assay [13] it was 19.9%; in [14], 41.7%; in assay [15], 4.5%; in assay [16], 10%; in [17], 31.5%. The % of inhibition in assay [20] stood at 26.1%; in [21] it was 3%; in assay [22] it was 3%; in [23] it was 11.1%; in [24] it was 97.9%; in assay [28] it was 6.3%. Besides, the % of inhibition in [29] was determined as 4.8%; in assay [30], 7.4%; in assay [31] it was 1.3%. Moreover, the % of control was 20% in assay [2]; 13% in assay [3]; 3% in assay [6]; 4% in assay [8]; 30% in [11]; 24% in [18]. Further, the % of control in assay [19] turned out to be 6%; in [25] it was 20%; in assay [26] it was 20%; in [27], 14%; in [32], 10%.

As to `Cn1cc(-c2ccc3occ(-c4cccc(-c5ccncc5)c4)c3n2)cn1`, the % of activity in assay [33] was found to be 90%; in assay [34] it was 99%; in [37] it was 94%. Moreover, the IC50 in assay [35] is 0.023 µM; in assay [36], 5.41 µM; in assay [38], above 10 µM.
